Test results from PubChem BioAssay AID179 (DTP/NCI, 2004).
Active and inactive are the calls of the source.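 The calls were made as follows: active = compounds giving half or more protection of infected cells from virus-caused growth loss, again on retest; inactive = the rest.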 Where a SMILES comes first, the peptide text is derived from it. The star is where a group is joined. CH2Cl = ClC*

Tested on: CEM cells HIV-1 protection, formazan growth assay
Experiment: NCI AIDS Antiviral Assay
Details: for IC50: measured here: growth of uninfected CEM cells
How it was run: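 Five concentrations of each compound were applied to infected and uninfected human CEM cells. Protection from HIV-1 was judged from growth measured with a soluble formazan assay.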

Structure (SMILES)	EC50 [µM]	IC50 [µM]	outcome
Cn1cnc([N+](=O)[O-])c1SSc1c([N+](=O)[O-])ncn1C	> 200	> 200	–
O=C(OCCN=c1c2ccccc2ccc2ccccc12)c1ccc([N+](=O)[O-])cc1	> 200	> 200	–
C=CCC1([C@H](C)[C@@H](OC(C)=O)c2cc(OC)c(OC)c(OC)c2)C[C@@H](OC)CCC1=O (stereo partly drawn)	> 115	6.03	–
CC1CCC2(CC1)N=C1CCC(C)CC1C1(CCC(C)CC1)N2 (stereo not drawn)	> 200	97.7	–
Cc1ccc(N=Nc2c(C)nn(-c3ccccc3)c2C)c(Br)c1	–	–	inactive
C=CCN(CC=C)C(=O)Nc1ccc(C(=O)N/N=C/c2cccc(OC)c2OC)cc1	89.1	170	–
NC(=O)c1[nH]nc(C2OC(CO)C(O)C2O)c1O (stereo not drawn)	> 955	0.309	–
Cc1ccn2c(=O)cc(CN3CCOCC3)nc2c1	> 200	> 200	–
Nc1ccc(S(=O)Cc2ccc(C(=O)O)cc2[N+](=O)[O-])cc1 (stereo not drawn)	> 776	> 776	–
COC(=O)c1ccccc1SSc1ccccc1C(=O)OC	> 200	18.6	–
c1ccc(CSC2(SCc3ccccc3)CCCCC2)cc1	> 200	77.6	–
OC1CN2CCC[C@@H](O)[C@@H]2C1O (stereo partly drawn)	> 200	> 200	–
CCCn1c2ccccc2c2ccc3c(c21)C(=O)C=CC3=O	> 200	1.17	–
CC(C)(C)OC(=O)CC(NC(=O)OC(C)(C)C)C(=O)N[C@@H]1CCCC[C@H]1C(=O)OCc1ccccc1 (stereo partly drawn)	> 200	10.5	–
CCC(C)C(NC(=O)C(CCCN=C(N)N)NC(=O)C(CC(N)=O)NC(=O)C(Cc1ccc(O)cc1)NC(=O)C(N)CC(C)C)C(=O)NC(C(=O)NC(CC(C)C)C(=O)NC(CCCN=C(N)N)C(=O)NC(Cc1ccc(O)cc1)C(=O)O)C(C)CC (stereo not drawn) (H-LYNRIILRY-OH; configuration not given here)	> 40.7	23.4	–
O=S(=O)(NCCSSCCNS(=O)(=O)c1ccc2ccccc2c1)c1ccc2ccccc2c1	> 200	64.6	–
CC(C)=CCC1=C(O)C(CC=C(C)C)(CC=C(C)C)C(=O)C(C(=O)C(C)C)=C1O	> 33.9	7.08	–
COC(=O)N/N=C(/c1nc2ccc([N+](=O)[O-])cc2[nH]c1=O)C(O)c1ccc(OC)c(OC)c1 (stereo not drawn)	> 110	> 110	–
Oc1ccc(-c2nc(-c3ccccc3)c(-c3ccccc3)[nH]2)cc1	> 200	26.9	–
COC1OC(CO)C(NC2=N[C@@H]3[C@H](O2)[C@@H](O)[C@H](O)[C@]3(O)CO)C(O)C1O (stereo partly drawn)	> 50.1	> 50.1	–
CCOP(=O)(OCC)C1=NC=CC=CC1n1c(-c2ccccc2)nn(CC)c1=O (stereo not drawn)	> 603	417	–
NS(=O)(=O)c1ccc(NCc2cccc3c(=O)c4ccc(Cl)cc4oc23)cc1	> 100	4.07	–

Structure (SMILES)	EC50 [µM]	IC50 [µM]	outcome
Cc1ccc(-c2n[nH]c(=O)n2N2C(=O)c3ccccc3C2=O)cc1	> 200	> 200	–
O=C(O)/C(Cl)=C(\Cl)C(=O)Nc1ccc(Cl)cc1Cl	–	–	inactive
Nc1ncc(N)c(N)n1	> 200	132	–
COc1cc2c(cc1O)C(Cc1ccc(Oc3cc(CC4c5cc(O)c(OC)cc5CCN4C)ccc3O)cc1)N(C)CC2 (stereo not drawn)	–	–	inactive
N#CC(C#N)=C(N)/C(C#N)=C\c1ccnc2ccccc12	> 26.3	4.07	–
CCCCN1CC(=O)N2CCCC(c3ccccc3)N2C(=O)C1 (stereo not drawn)	> 794	347	–
CC(=O)OC1C2CCC1C1C2N=NN1c1ccc([N+](=O)[O-])cc1 (stereo not drawn)	> 151	> 151	–
Cn1c2c(c3ccccc31)CCN(CCN1CCN(c3ccccc3)CC1)C2=O	–	–	inactive
COc1ccc2nc3ccccc3c(NCCCCCN(C)CCCl)c2c1	–	–	inactive
COc1cc2nc(/C=C/c3nc4cc(OC)c(OC)cc4[nH]3)[nH]c2cc1OC	> 200	57.5	–
COc1ccc(/C=C/C(=O)c2ccc3c(c2)OCO3)cc1OC	> 43.7	20.9	–
N#CC(Nc1ccccc1)c1ccc(C(C#N)Nc2ccccc2)cc1 (stereo not drawn)	> 200	9.55	–
O=C(CC(c1ccc2c(c1)OCO2)N1CCN(C(CC(=O)c2ccc(Br)cc2)c2ccc3c(c2)OCO3)CC1)c1ccc(Br)cc1 (stereo not drawn)	> 200	> 200	–
Cc1cc(Br)cc(C)c1NC(=O)C(=O)CC(=O)c1sc(-n2nc(-c3ccccc3)cc2-c2ccccc2)nc1C	–	–	inactive
COC(=O)C1CC(=O)N(C)c2sc(C)c(C)c2C1=O (stereo not drawn)	> 282	112	–
Fc1cccc(Cl)c1C1SCc2nc3cc4ccccc4cc3n21 (stereo not drawn)	> 200	158	–
CC(C)(C)CP(=S)(CCP(CCP(=S)(CC(C)(C)C)CC(C)(C)C)CCP(=S)(CC(C)(C)C)CC(C)(C)C)CC(C)(C)C	> 12.3	> 12.3	–
O=Cc1cc(C(=O)Nc2ccc(/C=C/c3ccc(NC(=O)c4cc(C=O)c5cccnc5c4O)cc3S(=O)(=O)O)c(S(=O)(=O)O)c2)c(O)c2ncccc12	24.5	> 100	–
COc1cc(NCC2COc3c(ccc(OC)c3OC)C2=O)c([N+](=O)[O-])cc1OC (stereo not drawn)	> 200	186	–
CCOC(=O)C(NC(=O)c1cccc(Cl)c1)(N1CCN(c2cc3c(cc2F)c(=O)c(C(=O)O)cn3C2CC2)CC1)C(F)(F)F (stereo not drawn)	> 20	10.2	–
COC(=O)CC(c1ccc(OC)cc1)C(CC(=O)OC)c1ccc(OC)cc1 (stereo not drawn)	> 67.6	60.3	–
CCC(C#N)NCc1ccc(CNC(C#N)CC)cc1 (stereo not drawn)	> 200	> 200	–

Structure (SMILES)	EC50 [µM]	IC50 [µM]	outcome
O=[N+]([O-])/C(C(Cl)=C(Cl)Cl)=C1/OCCS1	> 200	107	–
O=C1CN2C(Cl)(Cl)C2(c2ccccc2)c2cc(Cl)ccc2N1CC1CC1 (stereo not drawn)	> 200	11.7	–
CC1(C)CC(=O)C(/C=N/C(=S)NC2CCCCC2)=C(O)C1	> 100	> 100	–
O=C1C=Cc2ccccc2/C1=C/c1[nH]c(=O)[nH]c1O	> 200	16.2	–
C/C(CC(=O)Nc1ccc(C)c(C)c1)=N\N(c1ccccc1)c1ccccc1	> 97.7	> 97.7	–
COC(=O)C1=C(C(=O)OC)SC2(S1)C(C(=O)OC)=C(C(=O)OC)Sc1c2ssc1=O	> 0.2	0.0575	–
O=C1CCCC2CCCCN12 (stereo not drawn)	–	–	inactive
Cc1ccccc1CN1CC=c2ccccc2=N1	51.3	129	–
O=c1c2cccnc2[nH]c2ccc3[nH]ncc3c12	> 200	50.1	–
CCC(C(=O)OC)C1CCN(C)C(=O)C12CO2 (stereo not drawn)	> 1020	> 1020	–
Cc1ccc2nc3c(Cl)c(C)c(=O)cc-3sc2c1	> 13.5	> 13.5	–
CC(C)(C)C(=O)/C=C/c1cccc(C#N)c1	> 123	6.61	–
CC(=O)NC(Cc1ccccc1)NC(=O)O (stereo not drawn)	> 200	> 200	–
CC(C)CCCC(C)C1CCC2C3CC[C@H]4C[C@H](NC(=O)C=C(c5cc(Cl)c(O)c(C(=O)O)c5)c5cc(Cl)c(O)c(C(=O)O)c5)CC[C@]4(C)C3CC[C@]12C (stereo partly drawn)	> 100	26.3	–
COc1cccc2c1OCC1Cc3ccccc3OC21 (stereo not drawn)	–	–	inactive
CC(=O)Nc1oc(C)c(C)c1S(=O)(=O)c1ccc(Cl)cc1	> 200	107	–
CC(=O)C1(N=Nc2ccc(S(=O)(=O)Nc3nccc(C)n3)cc2)CCOC1=O (stereo not drawn)	> 200	> 200	–
COc1cccc(N2C(=O)CSC2c2c[nH]c3ccccc23)c1 (stereo not drawn)	> 22.4	> 22.4	–
COC(=O)[C@@H]1C[C@@H](OS(=O)(=O)c2ccc(C)cc2)CN1C(=O)OCc1ccccc1	–	–	inactive
c1ccc(-c2cc(-c3ccccc3)nc(-c3ccncc3)c2)cc1	> 200	> 200	–
Cn1c(=S)[nH]c(N)c(Cc2ccccc2)c1=O	> 200	64.6	–
NS(=O)(=O)c1ccc(NC(=S)/N=C/C2=C(O)c3ccccc3C2=O)cc1	> 200	52.5	–

Structure (SMILES)	EC50 [µM]	IC50 [µM]	outcome
Nc1nc(Cl)cc(NCC2(CCO)CCC2)n1	> 200	138	–
CN1CCN(c2nc3cc(F)ccc3n3cccc23)CC1	> 200	27.5	–
CC(C)(C)OC(=O)NC1CCCC1=O (stereo not drawn)	–	–	inactive
[N-]=[N+]=NC[C@H]1OCO[C@H](CN=[N+]=[N-])[C@H]2OCCOCCOc3ccccc3OCCOCCO[C@@H]21	> 200	> 200	–
COc1ccccc1OCC(Cn1c(=O)nc(-c2ccccc2)c2cc(Cl)ccc21)OC(N)=O (stereo not drawn)	> 28.2	> 28.2	–
Cc1cc2c(ccc3c(C)cc(=O)oc32)o1	–	–	inactive
CCS(=O)(=O)CCn1cnc2c1c(=O)n(C)c(=O)n2C	> 200	> 200	–
OCc1ccc2[n+](c1)CCC1c3ccccc3NC21 (stereo not drawn)	> 77.6	> 77.6	–
Cc1nc(N)sc1C(=O)/C=C\c1ccc2c(c1)OCO2	> 871	437	–
CC(=O)NC(CC(C)C)C(=O)NC(Cc1ccccc1)C(=O)CCl (stereo not drawn) (Ac-Leu-Phe-CH2Cl; configuration not given here)	> 200	1.12	–
COC(=O)CN(CC(=O)NCCCBr)C1CCCCC1N(CC(=O)OC)CC(=O)OC (stereo not drawn)	> 200	> 200	–
CCOC(=O)C(CO)(CC(CO)(C(C)=O)C(=O)OCC)C(C)=O (stereo not drawn)	> 200	27.5	–
O/N=C(/CC(O)(C(F)(F)F)C(F)(F)F)c1ccccc1	> 200	> 200	–
O=C(/C=C/c1ccc(OCCCOc2ccc(/C=C/C(=O)c3ccc(Cl)cc3)cc2)cc1)c1ccc(Cl)cc1	> 12.9	> 12.9	–
CC(=O)C1N=Nc2nc3c(=O)n(C)c(=O)n(C)c3n2C1=O (stereo not drawn)	> 200	> 200	–
Cc1ccc(/C=N/n2c(Cc3ccccc3)n[nH]c2=O)cc1	> 200	> 200	–
CC(=O)NCC1OC2COC(c3ccccc3)OC2C(NC(=O)c2ccccc2)C1OC(=O)c1ccccc1 (stereo not drawn)	–	–	inactive
CCOP(=O)(OCC)/C(C#N)=C/c1cccn1CC(C)C	60.3	123	–
CCOC(=O)C(Cc1ccccc1)P(=O)(OCC)OCC (stereo not drawn)	> 200	158	–
